Assay results as given in patent US7279325B2, “Method for identifying antagonist compounds of the estrogen-related receptor 3 (ERR3) by using the x-ray structural coordinates of the ligand binding domain” (priority 2002, dated 2007).
Entries after “also recorded” stand apart in the source; their conditions may differ.

Experiments:
ERR1 = molecular target: T1, ERR1 (Homo sapiens, UniProt P11474); settings: Coward et al. (2001); cited from earlier work
T1 sequence (P11474 1-423): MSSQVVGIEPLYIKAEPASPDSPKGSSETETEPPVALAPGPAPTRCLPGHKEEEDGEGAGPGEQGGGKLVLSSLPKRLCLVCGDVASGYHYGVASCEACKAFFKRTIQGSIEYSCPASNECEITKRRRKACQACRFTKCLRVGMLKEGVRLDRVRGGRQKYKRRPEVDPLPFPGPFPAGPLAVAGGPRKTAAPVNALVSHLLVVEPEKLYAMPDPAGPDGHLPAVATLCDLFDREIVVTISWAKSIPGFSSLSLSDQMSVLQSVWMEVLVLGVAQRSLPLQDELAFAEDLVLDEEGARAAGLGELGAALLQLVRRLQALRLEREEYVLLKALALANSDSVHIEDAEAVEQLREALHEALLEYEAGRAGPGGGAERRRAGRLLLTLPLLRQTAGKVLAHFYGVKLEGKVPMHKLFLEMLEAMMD

ERR2 = molecular target: T2, ERR2 (Homo sapiens, UniProt O95718); settings: Coward et al. (2001); cited from earlier work
T2 sequence (O95718 1-433): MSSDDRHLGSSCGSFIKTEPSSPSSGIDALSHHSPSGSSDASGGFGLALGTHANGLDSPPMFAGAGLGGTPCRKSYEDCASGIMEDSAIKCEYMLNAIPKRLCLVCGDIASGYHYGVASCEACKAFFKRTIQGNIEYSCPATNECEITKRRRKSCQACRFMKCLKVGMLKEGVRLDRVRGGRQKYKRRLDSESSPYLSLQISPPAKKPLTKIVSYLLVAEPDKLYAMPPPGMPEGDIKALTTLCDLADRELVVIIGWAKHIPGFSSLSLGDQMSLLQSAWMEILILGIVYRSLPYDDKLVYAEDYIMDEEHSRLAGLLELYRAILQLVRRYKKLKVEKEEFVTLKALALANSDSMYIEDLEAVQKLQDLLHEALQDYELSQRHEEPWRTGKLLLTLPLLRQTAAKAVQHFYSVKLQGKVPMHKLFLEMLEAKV

[1] = test system: mutant ERR3 LBDs (A272F, A272L, F435L, L345I, L345I-F435L, L345I-F435L-F450L)/GST-SRC-1 RID complex; experiment: In vitro protein-protein interaction assay, mutant ERR3 LBDs with SRC-1 RID (native gels); type: biochemical, human
Experimental: (§1) The His-tagged wt or mutant ERR3 LBDs, the GST-tagged SRC-1 RID, and GST were expressed in E. coli BL21(DE3) and partially purified by affinity chromatography using TALON (Clontech) or Glutathione Sepharose 4B (Pharmacia), respectively. […] After purification the proteins were dialyzed in assay buffer (20 mM Tris.HCl pH 8.0, 200 mM NaCl), and concentrated. For the protein-protein interaction assays […] (about 70 pmol) of His-tagged wt or mutant ERR3 LBD were mixed with […] (about 100 pmol) of GST-tagged SRC-1 RID or […] of GST and incubated on ice for 10 mins. […] Protein complexes were resolved on native polyacrylamide gradient gels (8%-25%) using the Phast System (Pharmacia).
(§2) In vitro interaction assays with the RID (amino acids 617-764) of the coactivator SRC-1 has first been performed. Hexahistidine (His)-tagged ERR3, LBD and GST-tagged SRC-1 RID were partially purified by affinity chromatography, the proteins were mixed, and complex formation was monitored on native polyacrylamide gels. […] Complexes were separated on native polyacrylamide gradient gels.
(§3) In addition, the ligand-binding pocket of ERR3 has been enlarged by either mutating F435 to leucine or by introducing a triple point mutation (L345I-F435L-F450L) which creates an “ERα-like” ligand-binding pocket.

[2] = molecular target: T3, mutant ERR3 LBDs (A272F, A272L, F435L, L345I, L345I-F435L, L345I-F435L-F450L)/GST-SRC-1 RID complex (Homo sapiens, UniProt P62508, F435L); experiment: as above; type: biochemical; settings: 10^−4M 4-OHT
T3 construct: wt or mutant ERR3 LBDs (residues 229 to 458, human and murine receptor are identical); made in house; host or cells: E. coli BL21(DE3)
T3 sequence (P62508 229-458 F435L): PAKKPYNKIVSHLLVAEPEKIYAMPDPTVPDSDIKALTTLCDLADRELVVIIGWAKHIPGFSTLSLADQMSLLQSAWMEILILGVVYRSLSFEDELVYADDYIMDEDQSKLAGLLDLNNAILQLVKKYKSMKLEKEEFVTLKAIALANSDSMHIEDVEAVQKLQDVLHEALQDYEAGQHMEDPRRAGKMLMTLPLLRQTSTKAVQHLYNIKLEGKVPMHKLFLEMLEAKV
Experimental: as §1, §2, §3

ERR3 = molecular target: T4, ERR3 (Homo sapiens, UniProt P62508); settings: Coward et al. (2001); cited from earlier work
T4 sequence (P62508 1-458): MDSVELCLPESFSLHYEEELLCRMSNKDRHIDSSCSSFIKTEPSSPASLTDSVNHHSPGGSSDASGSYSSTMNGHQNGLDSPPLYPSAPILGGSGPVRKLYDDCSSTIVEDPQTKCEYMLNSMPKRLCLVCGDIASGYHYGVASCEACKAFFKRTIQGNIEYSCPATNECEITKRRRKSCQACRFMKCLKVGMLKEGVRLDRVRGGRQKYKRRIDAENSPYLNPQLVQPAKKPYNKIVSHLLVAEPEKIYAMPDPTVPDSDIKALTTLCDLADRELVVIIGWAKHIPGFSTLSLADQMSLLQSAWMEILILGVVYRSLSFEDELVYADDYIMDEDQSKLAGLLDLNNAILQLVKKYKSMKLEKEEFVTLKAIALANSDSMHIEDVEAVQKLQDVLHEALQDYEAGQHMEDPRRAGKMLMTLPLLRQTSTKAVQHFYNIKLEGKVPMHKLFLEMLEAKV

4-hydroxytamoxifen [4-OHT]
binding to ERR1 (ERR1): does not bind | binding to ERR2 (ERR2): binds | effect on the complex between GST-SRC-1 RID and the mutants A272F or A272L ([1]; 10^−4M 4-OHT, ligand-binding cavity filled up): no effect | antagonist effect on ERR3 LBD mutants that contain a F435L mutation (F435L, L345I-F435L, L345I-F435L-F450L) in vitro ([1]; 10^−4M ligand): still acts as an antagonist | effect on the ERR3(F435L)/GST-SRC-1 RID complex [2]: still disrupted | transactivation / transcriptional activity mediated by ERR3 (ERR3): repressed; also recorded: selectively block
